From ChEMBL document CHEMBL4308841, “Synthesis, in vitro antiproliferative activity, and kinase inhibitory effects of pyrazole-containing diarylureas and diarylamides” (Eur J Med Chem, 2018)

Key:
[1] = test system: HOP-62; test: Growth inhibition of human HOP62 cells assessed as cell growth at 1 uM incubated for 48 hrs by sulforhodamine B assay relative to control; assay type: functional; conditions: HOP-62, 48 h, read-out: Activity
[2] = test system: HOP-62; test: Growth inhibition of human HOP62 cells assessed as cell growth at 0.1 uM incubated for 48 hrs by sulforhodamine B assay relative to control; assay type: functional; conditions: HOP-62, 48 h, read-out: Activity
[3] = test system: CCRF-CEM; test: Growth inhibition of human CCRF-CEM cells assessed as cell growth at 0.01 uM incubated for 48 hrs by sulforhodamine B assay relative to control; assay type: functional; conditions: read-out: Activity
[4] = test system: A549; test: Growth inhibition of human A549/ATCC cells assessed as cell growth at 0.1 uM incubated for 48 hrs by sulforhodamine B assay relative to control; assay type: functional; conditions: A549, 48 h, read-out: Activity
[5] = test system: NCI-H226; test: Growth inhibition of human NCI-H226 cells assessed as cell growth at 100 uM incubated for 48 hrs by sulforhodamine B assay relative to control; assay type: functional; conditions: NCI-H226, 48 h, read-out: Activity
[6] = test system: OVCAR-8; test: Growth inhibition of human OVCAR8 cells assessed as cell growth at 100 uM incubated for 48 hrs by sulforhodamine B assay relative to control; assay type: functional; conditions: OVCAR-8, 48 h, read-out: Activity
[7] = test system: KM12; test: Growth inhibition of human KM12 cells assessed as cell growth at 1 uM incubated for 48 hrs by sulforhodamine B assay relative to control; assay type: functional; conditions: KM12, 48 h, read-out: Activity
[8] = test system: TK-10; test: Growth inhibition of human TK10 cells assessed as cell growth at 10 uM incubated for 48 hrs by sulforhodamine B assay relative to control; assay type: functional; conditions: TK-10, 48 h, read-out: Activity
[9] = test system: COLO 205; test: Growth inhibition of human COLO205 cells assessed as cell growth at 1 uM incubated for 48 hrs by sulforhodamine B assay relative to control; assay type: functional; conditions: COLO 205, 48 h, read-out: Activity
[10] = test system: OVCAR-5; test: Growth inhibition of human OVCAR5 cells assessed as cell growth at 1 uM incubated for 48 hrs by sulforhodamine B assay relative to control; assay type: functional; conditions: OVCAR-5, 48 h, read-out: Activity
[11] = test system: HT-29; test: Growth inhibition of human HT-29 cells assessed as cell growth at 10 uM incubated for 48 hrs by sulforhodamine B assay relative to control; assay type: functional; conditions: HT-29, 48 h, read-out: Activity
[12] = test system: BT-549; test: Growth inhibition of human BT549 cells assessed as cell growth at 0.01 uM incubated for 48 hrs by sulforhodamine B assay relative to control; assay type: functional; conditions: BT-549, 48 h, read-out: Activity
[13] = test system: OVCAR-8; test: Growth inhibition of human OVCAR8 cells assessed as cell growth at 0.1 uM incubated for 48 hrs by sulforhodamine B assay relative to control; assay type: functional; conditions: OVCAR-8, 48 h, read-out: Activity
[14] = test system: CAKI-1; test: Growth inhibition of human Caki1 cells incubated for 48 hrs by sulforhodamine B assay; assay type: functional, cell-based; conditions: CAKI-1, 48 h
[15] = test system: COLO 205; test: Growth inhibition of human COLO205 cells assessed as cell growth at 0.1 uM incubated for 48 hrs by sulforhodamine B assay relative to control; assay type: functional; conditions: COLO 205, 48 h, read-out: Activity
[16] = test system: SK-OV-3; test: Growth inhibition of human SKOV3 cells assessed as cell growth at 1 uM incubated for 48 hrs by sulforhodamine B assay relative to control; assay type: functional; conditions: SK-OV-3, 48 h, read-out: Activity
[17] = test system: A498; test: Growth inhibition of human A498 cells assessed as cell growth at 0.1 uM incubated for 48 hrs by sulforhodamine B assay relative to control; assay type: functional; conditions: A498, 48 h, read-out: Activity
[18] = test system: HL-60(TB); test: Growth inhibition of human HL-60(TB) cells assessed as cell growth at 1 uM incubated for 48 hrs by sulforhodamine B assay relative to control; assay type: functional; conditions: HL-60, 48 h, read-out: Activity
[19] = test system: HCC 2998; test: Growth inhibition of human HCC2998 cells assessed as cell growth at 1 uM incubated for 48 hrs by sulforhodamine B assay relative to control; assay type: functional; conditions: HCC 2998, 48 h, read-out: Activity
[20] = test system: COLO 205; test: Growth inhibition of human COLO205 cells assessed as cell growth at 100 uM incubated for 48 hrs by sulforhodamine B assay relative to control; assay type: functional; conditions: COLO 205, 48 h, read-out: Activity
[21] = test system: HCC 2998; test: Growth inhibition of human HCC2998 cells incubated for 48 hrs by sulforhodamine B assay; assay type: functional, cell-based; conditions: HCC 2998, 48 h
[22] = test system: UACC-257; test: Growth inhibition of human UACC257 cells assessed as cell growth at 0.01 uM incubated for 48 hrs by sulforhodamine B assay relative to control; assay type: functional; conditions: UACC-257, 48 h, read-out: Activity
[23] = test system: M14; test: Growth inhibition of human M14 cells assessed as cell growth at 1 uM incubated for 48 hrs by sulforhodamine B assay relative to control; assay type: functional; conditions: M14, 48 h, read-out: Activity
[24] = test system: MCF7; test: Growth inhibition of human MCF7 cells assessed as cell growth at 0.1 uM incubated for 48 hrs by sulforhodamine B assay relative to control; assay type: functional; conditions: MCF7, 48 h, read-out: Activity
[25] = test system: SN12C; test: Growth inhibition of human SN12C cells assessed as cell growth at 100 uM incubated for 48 hrs by sulforhodamine B assay relative to control; assay type: functional; conditions: read-out: Activity
[26] = test system: SK-MEL-5; test: Growth inhibition of human SK-MEL-5 cells assessed as cell growth at 1 uM incubated for 48 hrs by sulforhodamine B assay relative to control; assay type: functional; conditions: SK-MEL-5, 48 h, read-out: Activity
[27] = test system: HCC 2998; test: Growth inhibition of human HCC2998 cells assessed as cell growth at 0.1 uM incubated for 48 hrs by sulforhodamine B assay relative to control; assay type: functional; conditions: HCC 2998, 48 h, read-out: Activity
[28] = test system: SF-268; test: Growth inhibition of human SF268 cells incubated for 48 hrs by sulforhodamine B assay; assay type: functional, cell-based; conditions: SF-268, 48 h
[29] = test system: RXF 393; test: Growth inhibition of human RXF393 cells assessed as cell growth at 1 uM incubated for 48 hrs by sulforhodamine B assay relative to control; assay type: functional; conditions: RXF 393, 48 h, read-out: Activity
[30] = test system: DU-145; test: Growth inhibition of human DU145 cells assessed as cell growth at 100 uM incubated for 48 hrs by sulforhodamine B assay relative to control; assay type: functional; conditions: DU-145, 48 h, read-out: Activity
[31] = test system: NCI/ADR-RES; test: Growth inhibition of human NCI/ADR-RES cells assessed as cell growth at 1 uM incubated for 48 hrs by sulforhodamine B assay relative to control; assay type: functional; conditions: read-out: Activity
[32] = test system: UO-31; test: Growth inhibition of human UO31 cells assessed as cell growth at 0.01 uM incubated for 48 hrs by sulforhodamine B assay relative to control; assay type: functional; conditions: UO-31, 48 h, read-out: Activity
[33] = read-out: LC50 (the source's name)
[34] = read-out: pLC50 (the source's name) (converted)

Structure (SMILES): COc1cc(Cl)cc(-c2nn(-c3cccc(NC(=O)Nc4ccc(Cl)c(Cl)c4)c3)cc2-c2ccncc2)c1
- growth at 1 µM [1]: 91%
- growth at 0.1 µM [2]: 94%
- growth at 0.01 µM [3]: 97%
- growth at 0.1 µM [4]: 97%
- growth at 100 µM [5]: 2%
- growth at 100 µM [6]: -9%
- growth at 1 µM [7]: 72%
- growth at 10 µM [8]: 19.8%
- growth at 1 µM [9]: 91%
- growth at 1 µM [10]: 87%
- growth at 10 µM [11]: 7.39%
- growth at 0.01 µM [12]: 96%
- growth at 0.1 µM [13]: 101%
- GI50 ([14]; read-out: GI50): 2.38 µM
- CC50 [14, 33]: > 100 µM
- TGI ([14]; read-out: TGI): 15.7 µM
- GI50 ([14]; read-out: pGI50 (converted)): 2.4 µM
- CC50 [14, 34]: > 100 µM
- TGI ([14]; read-out: pTGI (converted)): 16.6 µM
- growth at 0.1 µM [15]: 103%
- growth at 1 µM [16]: 100%
- growth at 0.1 µM [17]: 58%
- growth at 1 µM [18]: 91%
- growth at 1 µM [19]: 91%
- growth at 100 µM [20]: -100%
- GI50 ([21]; read-out: GI50): 3.16 µM
- CC50 [21, 33]: > 100 µM
- TGI ([21]; read-out: TGI): 35.8 µM
- GI50 ([21]; read-out: pGI50 (converted)): 3.16 µM
- CC50 [21, 34]: > 100 µM
- TGI ([21]; read-out: pTGI (converted)): 37.2 µM
- growth at 0.01 µM [22]: 96%
- growth at 1 µM [23]: 82%
- growth at 0.1 µM [24]: 94%
- growth at 100 µM [25]: 5%
- growth at 1 µM [26]: 88%
- growth at 0.1 µM [27]: 96%
- GI50 ([28]; read-out: GI50): 3.27 µM
- CC50 [28, 33]: > 100 µM
- TGI ([28]; read-out: TGI): > 100 µM
- GI50 ([28]; read-out: pGI50 (converted)): 3.24 µM
- CC50 [28, 34]: > 100 µM
- TGI ([28]; read-out: pTGI (converted)): > 100 µM
- growth at 1 µM [29]: 75%
- growth at 100 µM [30]: 13%
- growth at 1 µM [31]: 78%
- growth at 0.01 µM [32]: 89%

Structure (SMILES): O=C(Nc1cccc(-n2cc(-c3ccncc3)c(-c3cc(O)cc(Cl)c3)n2)c1)c1ccc(N2CCOCC2)c(C(F)(F)F)c1
- growth at 1 µM [1]: 85%
- growth at 0.1 µM [2]: 112%
- growth at 0.01 µM [3]: 98%
- growth at 0.1 µM [4]: 97%
- growth at 100 µM [5]: 27%
- growth at 100 µM [6]: 17%
- growth at 1 µM [7]: 54%
- growth at 10 µM [8]: 70.3%
- growth at 1 µM [9]: 100%
- growth at 1 µM [10]: 111%
- growth at 10 µM [11]: 16.9%
- growth at 0.01 µM [12]: 100%
- growth at 0.1 µM [13]: 101%
- GI50 ([14]; read-out: GI50): 1.1 µM
- CC50 [14, 33]: > 100 µM
- TGI ([14]; read-out: TGI): 60 µM
- GI50 ([14]; read-out: pGI50 (converted)): 1.1 µM
- CC50 [14, 34]: > 100 µM
- TGI ([14]; read-out: pTGI (converted)): 6.03 µM
- growth at 0.1 µM [15]: 104%
- growth at 1 µM [16]: 95%
- growth at 0.1 µM [17]: 85%
- growth at 1 µM [18]: 44%
- growth at 1 µM [19]: 70%
- growth at 100 µM [20]: -17%
- GI50 ([21]; read-out: GI50): 1.52 µM
- CC50 [21, 33]: > 100 µM
- TGI ([21]; read-out: TGI): 79.5 µM
- GI50 ([21]; read-out: pGI50 (converted)): 1.82 µM
- CC50 [21, 34]: > 100 µM
- TGI ([21]; read-out: pTGI (converted)): 7.94 µM
- growth at 0.01 µM [22]: 91%
- growth at 1 µM [23]: 45%
- growth at 0.1 µM [24]: 87%
- growth at 100 µM [25]: 38%
- growth at 1 µM [26]: 52%
- growth at 0.1 µM [27]: 100%
- GI50 ([28]; read-out: GI50): 5.51 µM
- CC50 [28, 33]: > 100 µM
- TGI ([28]; read-out: TGI): > 100 µM
- GI50 ([28]; read-out: pGI50 (converted)): 8.51 µM
- CC50 [28, 34]: > 100 µM
- TGI ([28]; read-out: pTGI (converted)): > 100 µM
- growth at 1 µM [29]: 13%
- growth at 100 µM [30]: 13%
- growth at 1 µM [31]: 79%
- growth at 0.01 µM [32]: 85%
